EC50 data for 36 compounds are collected here from US10077243B2, “Compounds for treating disorders mediated by metabotropic glutamate receptor 5, and methods of use thereof” (Sunovion Pharmaceuticals Inc., priority 2009, dated 2018).

Some results are limits rather than exact numbers.

In the experiment the target is T1, human mGluR5 (Homo sapiens, UniProt P41594).
T1 construct: expressed in transfected cells; host or cells: HEK293 cells stably expressing rat GLAST (EAAT1), stably transfected with pcDNAzeo3.1 carrying synthetic human mGluR5 DNA; zeocin-selected single clones
T1 sequence (P41594 21-1212): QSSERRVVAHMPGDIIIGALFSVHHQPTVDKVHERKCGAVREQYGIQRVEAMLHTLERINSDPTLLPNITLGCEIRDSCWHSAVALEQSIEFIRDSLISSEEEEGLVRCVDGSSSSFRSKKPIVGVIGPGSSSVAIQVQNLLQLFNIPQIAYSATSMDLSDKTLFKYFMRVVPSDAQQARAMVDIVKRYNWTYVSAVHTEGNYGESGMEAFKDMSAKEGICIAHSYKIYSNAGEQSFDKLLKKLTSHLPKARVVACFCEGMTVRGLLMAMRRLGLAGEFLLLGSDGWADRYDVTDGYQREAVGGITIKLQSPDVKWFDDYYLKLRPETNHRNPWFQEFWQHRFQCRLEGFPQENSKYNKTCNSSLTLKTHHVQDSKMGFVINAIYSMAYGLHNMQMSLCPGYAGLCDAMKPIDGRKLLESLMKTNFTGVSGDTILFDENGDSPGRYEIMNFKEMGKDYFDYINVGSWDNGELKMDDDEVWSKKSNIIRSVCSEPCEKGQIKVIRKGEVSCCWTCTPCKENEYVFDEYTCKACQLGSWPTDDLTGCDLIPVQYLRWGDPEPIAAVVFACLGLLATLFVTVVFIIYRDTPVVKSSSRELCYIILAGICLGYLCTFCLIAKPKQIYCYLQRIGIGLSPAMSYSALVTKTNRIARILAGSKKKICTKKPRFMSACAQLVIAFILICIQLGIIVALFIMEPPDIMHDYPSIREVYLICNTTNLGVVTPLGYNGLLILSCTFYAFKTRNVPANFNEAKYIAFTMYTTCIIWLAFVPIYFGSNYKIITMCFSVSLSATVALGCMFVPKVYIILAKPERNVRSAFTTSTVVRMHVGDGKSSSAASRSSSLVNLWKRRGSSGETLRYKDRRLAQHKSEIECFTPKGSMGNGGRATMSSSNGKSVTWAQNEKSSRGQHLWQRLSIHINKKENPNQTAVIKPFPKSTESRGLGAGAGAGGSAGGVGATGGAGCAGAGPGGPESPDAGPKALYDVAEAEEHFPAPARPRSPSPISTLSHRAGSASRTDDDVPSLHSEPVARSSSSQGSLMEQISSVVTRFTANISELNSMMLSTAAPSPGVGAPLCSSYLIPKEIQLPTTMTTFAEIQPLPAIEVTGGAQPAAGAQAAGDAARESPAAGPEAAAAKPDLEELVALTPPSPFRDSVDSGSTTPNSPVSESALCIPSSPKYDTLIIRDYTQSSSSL
The experiment in a line: In vitro cell-based FLIPR calcium assay for positive modulation of the activation of mGluR5 by glutamate (PAM EC50). The following applies: HEK293/GLAST cells expressing recombinant human mGluR5; FLIPR calcium signal; glutamate added at its EC20; read-out: mGluR5 PAM EC50. A digest of the protocol:
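HEK293/GLAST cells stably expressing mGluR5 were loaded with calcium-sensitive dye (25 °C, 45–60 min) in HBSS/20 mM HEPES. Test compounds were assayed in buffer containing glutamate at that day's EC20, with FLIPR fluorescence recorded. Controls contained 0.3% DMSO without compound.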
On to `CC1(C)Cn2c(nc3cc(C#Cc4ccccn4)ccc3c2=O)CN1` [Example 5.17, 3,3-dimethyl-9-(pyridin-2-ylethynyl)-3,4-dihydro-1H-pyrazino[2,1-b]quinazolin-6(2H)-one], for which the EC50 – broadly, the concentration that produces a half-maximal response – was 100 to 300 nM.

For `CN1Cc2nc3cc(C#Cc4ccccn4)ccc3c(=O)n2CC1(C)C` [Example 5.18, 2,3,3-trimethyl-9-(pyridin-2-ylethynyl)-3,4-dihydro-1H-pyrazino[2,1-b]quinazolin-6(2H)-one], the EC50 is 300 to 1000 nM.

Turning to `O=c1c2ccc(C#Cc3cccc(F)c3)cc2nc2n1CC1CCCCN1C2` (stereo not drawn) [Example 5.19, 3-((3-fluorophenyl)ethynyl)-8,9,10,11,11a,12-hexahydropyrido[1′,2′:4,5]pyrazino[2,1-b]quinazolin-14(6H)-one], the EC50 is 300 to 1000 nM.

In the case of `O=c1c2ccc(C#Cc3ccccn3)cc2nc2n1CC1CCCCN1C2` (stereo not drawn) [Example 5.20, 3-(pyridin-2-ylethynyl)-8,9,10,11,11a,12-hexahydropyrido[1′,2′:4,5]pyrazino[2,1-b]quinazolin-14(6H)-one], the EC50 lay in the range of 300 to 1000 nM. For the compound `O=c1c2ccc(C#Cc3cccc(F)c3)cc2nc2n1CC1CCCN1C2` (stereo not drawn) [Example 5.21, 8-((3-fluorophenyl)ethynyl)-2,3,13,13a-tetrahydro-1H-pyrrolo[1′,2′:4,5]pyrazino[2,1-b]quinazolin-11(5H)-one], the EC50 is less than 10 nM. `O=c1c2ccc(C#Cc3ccccn3)cc2nc2n1CC1CCCN1C2` (stereo not drawn) [Example 5.22, 8-(pyridin-2-ylethynyl)-2,3,13,13a-tetrahydro-1H-pyrrolo[1′,2′:4,5]pyrazino[2,1-b]quinazolin-11(5H)-one]: the EC50 lay within 30 to 100 nM. As for `O=c1c2ccc(C#Cc3ccccn3)cc2nc2n1C[C@@H]1CCCN1C2` [Example 5.23, (S)-8-(pyridin-2-ylethynyl)-2,3,13,13a-tetrahydro-1H-pyrrolo[1′,2′:4,5]pyrazino[2,1-b]quinazolin-11(5H)-one], the EC50 was 30 to 100 nM. In the case of `O=c1c2ccc(C#Cc3cccnc3)cc2nc2n1CC1CCCN1C2` (stereo not drawn) [Example 5.24, 8-(pyridin-3-ylethynyl)-2,3,13,13a-tetrahydro-1H-pyrrolo[1′,2′:4,5]pyrazino[2,1-b]quinazolin-11(5H)-one] it was 30 to 100 nM; in that of `CC1(C)CNc2nc3cc(C#Cc4ccccn4)ccc3c(=O)n2C1` [Example 5.26, 3,3-dimethyl-9-(pyridin-2-ylethynyl)-3,4-dihydro-1H-pyrimido[2,1-b]quinazolin-6(2H)-one], less than 10 nM.

On to `O=c1c2ccc(C#Cc3ccc(F)cc3)cc2nc2n1CCOCC2` [Example 6.1, 8-((4-fluorophenyl)ethynyl)-4,5-dihydro-1H-[1,4]oxazepino[5,4-b]quinazolin-11(2H)-one], for which the EC50 was less than 10 nM. In the case of `CCc1ccc(C#Cc2ccc3c(=O)n4c(nc3c2)CCCCC4)cc1` [Example 6.3, 3-((4-ethylphenyl)ethynyl)-7,8,9,10-tetrahydroazepino[2,1-b]quinazolin-12(6H)-one] it was 100 to 300 nM.

As to `O=c1c2ccc(C#Cc3ccccc3)cc2nc2n1CCCCC2` [Example 6.4, 3-(phenylethynyl)-7,8,9,10-tetrahydroazepino[2,1-b]quinazolin-12(6H)-one], the EC50 is less than 10 nM. As for `O=c1c2ccc(C#Cc3ccccn3)cc2nc2n1CCCCC2` [Example 6.5, 3-(pyridin-2-ylethynyl)-7,8,9,10-tetrahydroazepino[2,1-b]quinazolin-12(6H)-one], the EC50 was less than 10 nM. For `CC1CCc2nc3cc(C#Cc4ccc(F)cc4)ccc3c(=O)n2CC1` (stereo not drawn) [Example 6.6, 3-((4-fluorophenyl)ethynyl)-8-methyl-7,8,9,10-tetrahydroazepino[2,1-b]quinazolin-12(6H)-one] the value was less than 10 nM; for `CC1CCc2nc3cc(C#Cc4cccc(F)c4)ccc3c(=O)n2CC1` (stereo not drawn) [Example 6.7, 3-((3-fluorophenyl)ethynyl)-8-methyl-7,8,9,10-tetrahydroazepino[2,1-b]quinazolin-12(6H)-one], less than 10 nM; for `Cc1cnc(C#Cc2ccc3c(=O)n4c(nc3c2)CCC(C)CC4)s1` (stereo not drawn) [Example 6.8, 8-methyl-3-((5-methylthiazol-2-yl)ethynyl)-7,8,9,10-tetrahydroazepino[2,1-b]quinazolin-12(6H)-one], 10 to 30 nM. For `CC1CCc2nc3cc(C#Cc4ccccn4)ccc3c(=O)n2CC1` (stereo not drawn) [Example 6.9, 8-methyl-3-(pyridin-2-ylethynyl)-7,8,9,10-tetrahydroazepino[2,1-b]quinazolin-12(6H)-one] the value was less than 10 nM. In the case of `CCC1CCc2nc3cc(C#Cc4ccc(F)cc4)ccc3c(=O)n2CC1` (stereo not drawn) [Example 6.12, 8-ethyl-3-((4-fluorophenyl)ethynyl)-7,8,9,10-tetrahydroazepino[2,1-b]quinazolin-12(6H)-one], the concentration giving a half-maximal response (EC50) was less than 10 nM. In the case of `CCCC1CCc2nc3cc(C#Cc4ccc(F)cc4)ccc3c(=O)n2CC1` (stereo not drawn) [Example 6.13, 3-((4-fluorophenyl)ethynyl)-8-propyl-7,8,9,10-tetrahydroazepino[2,1-b]quinazolin-12(6H)-one], the concentration for a half-maximal effect (EC50) lay in the range of 30 to 100 nM.

For the compound `O=C1CCc2nc3cc(C#Cc4cccc(F)c4)ccc3c(=O)n2CC1` [Example 6.14, 3-((3-fluorophenyl)ethynyl)-6,7,9,10-tetrahydroazepino[2,1-b]quinazoline-8,12-dione], the EC50 was in the range of 10 to 30 nM. In the case of `O=c1c2ccc(C#Cc3cccc(F)c3)cc2nc2n1CCC(O)CC2` (stereo not drawn) [Example 6.15, 3-((3-fluorophenyl)ethynyl)-8-hydroxy-7,8,9,10-tetrahydroazepino[2,1-b]quinazolin-12(6H)-one] it was less than 10 nM; in that of `O=c1c2ccc(C#Cc3ccccn3)cc2nc2n1CCC(O)CC2` (stereo not drawn) [Example 6.16, 8-hydroxy-3-(pyridin-2-ylethynyl)-7,8,9,10-tetrahydroazepino[2,1-b]quinazolin-12(6H)-one], 30 to 100 nM. On to `O=c1c2ccc(C#Cc3cccnc3)cc2nc2n1CCC(O)CC2` (stereo not drawn) [Example 6.17, 8-hydroxy-3-(pyridin-3-ylethynyl)-7,8,9,10-tetrahydroazepino[2,1-b]quinazolin-12(6H)-one], for which the half-maximal effective concentration (EC50) lay in the range of 100 to 300 nM.

On to `COC1CCc2nc3cc(C#Cc4cccc(F)c4)ccc3c(=O)n2CC1` (stereo not drawn) [Example 6.18, 3-((3-fluorophenyl)ethynyl)-8-methoxy-7,8,9,10-tetrahydroazepino[2,1-b]quinazolin-12(6H)-one], for which the EC50 was less than 10 nM.

As for `C=C1CCc2nc3cc(C#Cc4cccc(F)c4)ccc3c(=O)n2CC1` [Example 6.22, 3-((3-fluorophenyl)ethynyl)-8-methylene-7,8,9,10-tetrahydroazepino[2,1-b]quinazolin-12(6H)-one], the EC50 is less than 10 nM. With `O=c1c2ccc(C#Cc3cccc(F)c3)cc2nc2n1CC/C(=N\O)CC2` [Example 6.23, 3-((3-fluorophenyl)ethynyl)-8-(hydroxyimino)-7,8,9,10-tetrahydroazepino[2,1-b]quinazolin-12(6H)-one], the EC50 was in the range of 30 to 100 nM. For `COCC1CCc2nc3cc(C#Cc4cccc(F)c4)ccc3c(=O)n2CC1` (stereo not drawn) [Example 6.24, 3-((3-fluorophenyl)ethynyl)-8-(methoxymethyl)-7,8,9,10-tetrahydroazepino[2,1-b]quinazolin-12(6H)-one] the value was 10 to 30 nM; for `O=c1c2ccc(C#Cc3cccc(F)c3)cc2nc2n1CCC1(CCCO1)CC2` (stereo not drawn) [Example 6.26, 3-((3-fluorophenyl)ethynyl)-4′,5′,9,10-tetrahydro-3′H,6H-spiro[azepino[2,1-b]quinazoline-8,2′-furan]-12(7H)-one], 10 to 30 nM.

Turning to `O=c1c2ccc(C#Cc3ccccn3)cc2nc2n1CCC1(CCCO1)CC2` (stereo not drawn) [Example 6.27, 3-(pyridin-2-ylethynyl)-4′,5′,9,10-tetrahydro-3′H,6H-spiro[azepino[2,1-b]quinazoline-8,2′-furan]-12(7H)-one], the EC50 was 30 to 100 nM.

Take `CC(C)CC1CCCCc2nc3cc(C#Cc4ccc(F)cc4)ccc3c(=O)n21` (stereo not drawn) [Example 6.32, 3-((4-fluorophenyl)ethynyl)-10-isobutyl-7,8,9,10-tetrahydroazepino[2,1-b]quinazolin-12(6H)-one]: the 50% effective concentration (EC50) lay in the range of 100 to 300 nM. For `C=CCC1CCCCc2nc3cc(C#Cc4ccc(F)cc4)ccc3c(=O)n21` (stereo not drawn) [Example 6.33, 10-allyl-3-((4-fluorophenyl)ethynyl)-7,8,9,10-tetrahydroazepino[2,1-b]quinazolin-12(6H)-one] the value was 10 to 30 nM; for `O=c1c2ccc(C#Cc3cccc(F)c3)cc2nc2n1CCC1(CC2)OCCO1` [Example 6.34, 3-((3-fluorophenyl)ethynyl)-9,10-dihydro-6H-spiro[azepino[2,1-b]quinazoline-8,2′-[1,3]dioxolan]-12(7H)-one], 10 to 30 nM; for `CC1CCCCn2c1nc1cc(C#Cc3ccccn3)ccc1c2=O` (stereo not drawn) [Example 6.35, 6-methyl-3-(pyridin-2-ylethynyl)-7,8,9,10-tetrahydroazepino[2,1-b]quinazolin-12(6H)-one], 10 to 30 nM.

`CC1CCCn2c(nc3cc(C#Cc4ccccn4)ccc3c2=O)C1` (stereo not drawn) [Example 6.36, 7-methyl-3-(pyridin-2-ylethynyl)-7,8,9,10-tetrahydroazepino[2,1-b]quinazolin-12(6H)-one]: the EC50 fell in the range of 10 to 30 nM. Turning to `CC1(C)CCCn2c(nc3cc(C#Cc4ccccn4)ccc3c2=O)C1` [Example 6.37, 7,7-dimethyl-3-(pyridin-2-ylethynyl)-7,8,9,10-tetrahydroazepino[2,1-b]quinazolin-12(6H)-one], the EC50 was less than 10 nM. In the case of `O=c1c2ccc(C#Cc3ccccn3)cc2nc2n1CCC(C(F)(F)F)CC2` (stereo not drawn) [Example 6.38, 3-(pyridin-2-ylethynyl)-8-(trifluoromethyl)-7,8,9,10-tetrahydroazepino[2,1-b]quinazolin-12(6H)-one] it was 30 to 100 nM.
